Results on 2 compounds are retold here after PMC5854716, “Synthesis, molecular docking, ctDNA interaction, DFT calculation and evaluation of antiproliferative and anti-Toxoplasma gondii activities of 2,4-diaminotriazine-thiazole derivatives” (Medicinal Chemistry Research, 2018).

In brackets after ≈: the same amount, converted by molar mass.

Assay [1] has as its system biphenotypic B myelomonocytic leukemia MV4-11 cells. In words: In vitro antiproliferative assay (MTT), MV4-11. The format is cell-based, human. Particulars: 72 h exposure, mean ± SD. The protocol: Biphenotypic B myelomonocytic leukemia MV4-11, human lung carcinoma A549, human breast carcinoma MCF-7, and normal mouse fibroblast BALB/3T3 cells were obtained from American Type Culture Collection (Rockville, Maryland, USA). All the cell lines are being maintained at the Institute of Immunology and Experimental Therapy, Wroclaw, Poland. MV4-11 cells were cultured in RPMI 1640 medium (Gibco, UK) with 2 mM L-glutamine adjusted to contain 1.0 mM sodium pyruvate, and 10% fetal bovine serum (FBS) (all from Sigma-Aldrich, Germany). A549 cells were cultured in RPMI 1640+ Opti-MEM (1:1) (both from Gibco, UK), MCF-7 cells in Eagle medium (IIET, Wroclaw, Poland), BALB/3T3 in Dulbecco medium (IIET, Poland) supplemented with 2 mM L-glutamine and 1.0 mM sodium pyruvate, 10% fetal bovine serum (all from Sigma-Aldrich, Germany). The MCF-7 cell culture was supplemented with 0.8 mg/l of insulin (Sigma-Aldrich, Germany). All culture media were supplemented with 100 units/ml penicillin, and 100 µg/ml streptomycin (both from Polfa Tarchomin S.A., Poland). All cell lines were grown at 37 °C with 5% CO2 humidified atmosphere (Łączkowski et al. [2014], [2016a]).
Prior to usage, the compounds were dissolved in DMSO and culture medium (1: 9) to the concentration of 1 mg/ml, and subsequently diluted in culture medium to reach the required concentrations (0.1, 1, 10, and 100 µg/ml) (Łączkowski et al. [2014], [2016a]).
Twenty-four hours prior to the addition of the tested compounds, the cells counted using Burker hemocytometer were plated in 96-well plates (Sarstedt, Germany) at a density of 1 × 10^4 cells per well. The assay was performed after 72 h of exposure to varying concentrations of the tested agents. The in vitro cytotoxic effect of all agents was examined using the SRB assay for adherent cells (A549, MCF-7, and BALB/3T3) or MTT assay for leukemia cells (MV4-11) as described previously. The results were calculated as an inhibitory concentration 50 (IC50)—the concentration of tested agent which inhibits proliferation of 50% of the cancer cell population. Each compound in each concentration was tested in triplicate in a single experiment, which was repeated 3–7 times (Rubinstein et al. [1990]; Bramson et al. [1995]).
Twenty microliter of MTT solution (MTT: 3-(4,5-dimethylthiazol-2-yl)-2,5-diphenyltetrazolium bromide, stock solution: 5 mg/ml) was added to each well and incubated for 4 h. After the incubation time was complete, 80 µl of the lysis mixture was added to each well (lysis mixture: 225 ml dimethylformamide, 67.5 g sodium dodecyl sulfate and 275 ml of distilled water). The optical densities of the samples were read after 24 h on a Synergy H4 (BioTek Instruments USA) photometer microtiter plate reader at 570 nm (Sidoryk et al. [2012]). All of chemicals were obtained from Sigma-Aldrich, Germany.

Assay [2] deals with human breast carcinoma MCF-7 cells. The experiment in a line: In vitro antiproliferative assay (SRB), MCF-7. The format is cell-based. Particulars: 72 h exposure, mean ± SD. The protocol:
(§1) Biphenotypic B myelomonocytic leukemia MV4-11, human lung carcinoma A549, human breast carcinoma MCF-7, and normal mouse fibroblast BALB/3T3 cells were obtained from American Type Culture Collection (Rockville, Maryland, USA). All the cell lines are being maintained at the Institute of Immunology and Experimental Therapy, Wroclaw, Poland. MV4-11 cells were cultured in RPMI 1640 medium (Gibco, UK) with 2 mM L-glutamine adjusted to contain 1.0 mM sodium pyruvate, and 10% fetal bovine serum (FBS) (all from Sigma-Aldrich, Germany). A549 cells were cultured in RPMI 1640+ Opti-MEM (1:1) (both from Gibco, UK), MCF-7 cells in Eagle medium (IIET, Wroclaw, Poland), BALB/3T3 in Dulbecco medium (IIET, Poland) supplemented with 2 mM L-glutamine and 1.0 mM sodium pyruvate, 10% fetal bovine serum (all from Sigma-Aldrich, Germany). The MCF-7 cell culture was supplemented with 0.8 mg/l of insulin (Sigma-Aldrich, Germany). All culture media were supplemented with 100 units/ml penicillin, and 100 µg/ml streptomycin (both from Polfa Tarchomin S.A., Poland). All cell lines were grown at 37 °C with 5% CO2 humidified atmosphere (Łączkowski et al. [2014], [2016a]). Prior to usage, the compounds were dissolved in DMSO and culture medium (1: 9) to the concentration of 1 mg/ml, and subsequently diluted in culture medium to reach the required concentrations (0.1, 1, 10, and 100 µg/ml) (Łączkowski et al. [2014], [2016a]). Twenty-four hours prior to the addition of the tested compounds, the cells counted using Burker hemocytometer were plated in 96-well plates (Sarstedt, Germany) at a density of 1 × 10^4 cells per well. The assay was performed after 72 h of exposure to varying concentrations of the tested agents. The in vitro cytotoxic effect of all agents was examined using the SRB assay for adherent cells (A549, MCF-7, and BALB/3T3) or MTT assay for leukemia cells (MV4-11) as described previously. […] Each compound in each concentration was tested in triplicate in a single experiment, which was repeated 3–7 times (Rubinstein et al. [1990]; Bramson et al. [1995]). Cells were attached to the bottom of plastic wells by fixing them with cold 50% TCA (trichloroacetic acid, POCH, Gliwice, Poland) on top of the culture medium in each well. The plates were incubated at 4 °C for 1 h and then washed five times with tap water. The cellular material fixed with TCA was stained with 0.1% sulforhodamine B (SRB, Sigma-Aldrich, Germany) and dissolved in 1% acetic acid (POCH, Gliwice, Poland) for 30 min. Unbound dye was removed by rinsing (4×) in 1% acetic acid. The protein-bound dye was extracted with 10 mM unbuffered Tris base (Sigma-Aldrich, Germany) for determination of the optical density (λ = 540 nm) in a computer-interfaced, 96-well Synergy H4 (BioTek Instruments USA) photometer microtiter plate reader (Sidoryk et al. [2012]).

In assay [3] the test system is normal mouse fibroblast Balb/3T3 cells. The experiment in a line: In vitro cytotoxicity (SRB), Balb/3T3. The class given is cell-based. Particulars: 72 h exposure, mean ± SD. The procedure:
as §1

For assay [4], the system named is human lung carcinoma A549 cells. The experiment in a line: In vitro antiproliferative assay (SRB), A549. The class given is cell-based. Particulars: 72 h exposure, mean ± SD. The procedure:
as §1

In assay [5] the test system is Toxoplasma gondii BK strain. The experiment in a line: T. gondii tachyzoite intracellular proliferation in VERO host cells ([3H]uracil incorporation). The format is cell-based. Particulars: Toxoplasma gondii. The protocol:
The epithelial cell line VERO (ATCC-Catalog No. CCL-81^TM), derived from the kidney of the African green monkey, Cercopithecus aethiops and fibroblast cell line L-929 (ATCC-Catalog No. CCL-1^TM), derived from Mus musculus (http://www.atcc.org) were grown in Iscoves’s Modified Dulbecco’s Medium (IMDM) supplemented with 10% (v/v) fetal bovine serum (FBS), plus 2 mM L-glutamine, 100 U/ml penicillin, 100.00 µg/ml streptomycin, 5 × 10^−5 M 2-mercaptoethanol and maintained at 37 °C in a 10% CO2 atmosphere. Subcultures were performed via enzymatic cell dissociation in 0.25% trypsin. After dissociation, the cells were placed in culture medium at 4 °C with 10% FBS to inhibit the action of trypsin. The isolated cells were centrifuged for 10 min at 1000×g at 4 °C, and the cells were grown in new bottles. This procedure was repeated when cells reached a confluence of ~90%. All commercial reactants and solvents were purchased from either Sigma-Aldrich Laborchemikalien GmbH (Dzitko et al. [2014]).
Suspensions of the compounds 4a–l were freshly prepared (5 mg/ml DMSO) before the cells were exposed, and diluted to appropriate concentrations; 0.9, 1.8, 3.9, 7.8, 15.6, 31.2, 62.5, and 125.00 μg/ml with the culture medium. Cells treated with 2.5% DMSO-solvent served as a control in each experiment.
Stock solutions of the Sulfadiazine (100 mg/ml 1 N NaOH; Catalog No. S8626) was freshly prepared before each experiment, and diluted to appropriate concentrations: 5.00, 25.00, 50.00, 125.00, 250.00, 500.00, 1250.00, and 2500.00 μg/ml, respectively in IMDM complete medium. All commercial reactants and solvents were purchased from either Sigma-Aldrich Laborchemikalien GmbH.
Tachyzoites of T. gondii, BK strain, were maintained in female C57BL/6 (H-2^b) and BALB/c (H-2^d) mice (with genetically determined high and low susceptibility, respectively to Toxoplasma infection) via serial intraperitoneal inoculation of 10^5–10^6 parasites per mouse in phosphate-buffered saline (PBS). After 48 to 96 h, parasites were harvested via peritoneal lavage using PBS, pH 7.2, and centrifuged at 200×g for 5 min to remove blood cells and cell debris. The supernatant containing tachyzoites was collected and centrifuged again at 2000×g for 15 min. The final pellet was resuspended in IMDM, quantified in a Burker’s chamber, and used in experimental assays. Inbred mice were kept under standard laboratory conventional conditions. All experimental procedures were conducted according to guidelines of the 9. Local Ethics Commission for Experiments on Animals in Lodz.
VERO, (2 × 10^4 cells/100 µl/well) were grown in complete medium (IMDM) on 96-well plates. After 24 h incubation, a medium was removed and then T. gondii […] tachyzoites, suspended in culture medium supplemented with 0.9–125.00 μg/ml diaminotriazines 4a–l and as a control-sulfadiazine (5.0–2500.0 μg/ml), were added (2 × 10^5 tachyzoites/200 µl/well) to the cell monolayers. After subsequent 48 h incubation 1 µCi/well of [^3H] uracil (Moravek Biochemicals Inc., Brea, CA, USA) was applied to each microculture for further 18–20 h. The amount of the isotope incorporated into the parasite nucleic acid pool, corresponding to the parasite growth, was measured by liquid scintillation counting with 1450 Microbeta Plus Liquid Scintillation Counter (Wallac Oy, Turku, Finland). The cpms of host cells alone (below 250/microculture) were subtracted from cpms of T. gondii infected microcultures (Dzitko et al. [2014]).

`N.N.[Cl][Pt][Cl]` [cis-platin, reference compound]: in assay [1], the “IC50 MV4-11” value stood at 0.22 ± 0.11 µg/mL. Besides, the “IC50 MCF-7” value in assay [2] came to 2.33 ± 0.465 µg/mL. For the same compound, the “IC50 Balb/3T3” value in assay [3] is 2.55 ± 0.588 µg/mL. Moreover, in assay [4], the “IC50 A549” value came out at 2.69 ± 1.119 µg/mL.

`Nc1ccc(S(=O)(=O)Nc2ncccn2)cc1` [Sulfadiazine, reference compound] gave an activity at 5 µg/mL in assay [5] (5.00 µg/ml, VERO host cells) of 92%. The compound further yielded an activity at 25 µg/mL in assay [5] (25.00 µg/ml, VERO host cells) of 80.5%. The compound also had an activity at 50 µg/mL in assay [5] (50.00 µg/ml, VERO host cells) of 70.7%. Moreover, the activity at 125 µg/mL in assay [5] (125.00 µg/ml, VERO host cells (Table 3)) turned out to be 55.2%. Also, in assay [5] (250.00 µg/ml, VERO host cells), the activity at 250 µg/mL was found to be 52.8%. In assay [5] (500.00 µg/ml, VERO host cells), this compound gave an activity at 500 µg/mL of 41.6%. Also, the activity at 1250 µg/mL in assay [5] (1250.00 µg/ml, VERO host cells) is 39.7%. Moreover, the activity at 2500 µg/mL in assay [5] (2500.00 µg/ml, VERO host cells) was 39.6%. For the same compound, the IC50 in assay [5] (VERO host cells, GraphPad Prism curves, read-out: IC50 (50% inhibition of T. gondii proliferation in vitro)) was found to be 1020 µg/mL (≈ 4.09 mM).
